{
  "source": "patent US11345700B2",
  "about": "“Methods of preparing inhibitors of influenza viruses replication” (priority 2013, dated 2022)",
  "key": {"[1]": {"system": "Influenza A/California/04/2009 (pndH1N1) virus", "type": "in vivo, BALB/c mice", "details": "mouse, in vivo"}, "[2]": {"system": "influenza A virus", "assay": "Mouse influenza A model: prophylactic dose response and delayed treatment, survival and body weight loss", "type": "in vivo, mice", "details": "10 mg/kg BID", "description": "The prophylactic dose response of Compound (1) was investigated in the mouse influenza A model. […] All of the mice that received vehicle alone succumbed to the infection by study day 9 and had lost, on average, ˜32% of their body weight (BW).\nAll vehicle controls succumbed to disease by study days 8 or 9."}, "[3]": {"system": "Influenza A/Victoria/3/75 (H3N2) virus", "type": "in vivo, BALB/c mice", "details": "mouse, in vivo"}, "[4]": {"system": "A/Puerto Rico/8/34"}, "[5]": {"system": "influenza A", "assay": "Mouse model of influenza A: lung viral titers", "type": "in vivo, mice", "details": "Study 1, 10 mg/kg BID from 24 h post infection for 5 days"}, "[6]": {"system": "Influenza A/Vietnam/1203/2004 (H5N1) virus", "type": "in vivo, BALB/c mice", "details": "10 mg/kg p.o. twice a day for 10 days; Treatment (+48 h)"}, "[7]": {"details": "2 weeks"}, "[8]": {"system": "A/Puerto Rico/8/34", "type": "cell-based, influenza A virus"}, "[9]": {"system": "influenza A/PR/8/34", "assay": "In vivo combination of Compound (1) with zanamivir, influenza A challenge in mice", "details": "no Compound (1)", "description": "Efficiency quotient, a composite measure of survival, bodyweight loss and lung function (% survival/(% body weight loss at Day 8)*(Penh at Day 6)) is summarized in Table 19B."}, "[10]": {"details": "treatment start +24 h relative to infection"}, "[11]": {"details": "treatment start +48 h relative to infection"}, "[12]": {"details": "treatment start +72 h relative to infection"}, "[13]": {"details": "treatment start −2 h relative to infection"}, "[14]": {"details": "in Nitromethane, ambient temperature"}, "[15]": {"details": "Zanamivir 0.3 mg/kg IN x 1, 24 h prior to infection"}, "[16]": {"details": "Zanamivir 1 mg/kg IN x 1, 24 h prior to infection"}, "[17]": {"details": "Zanamivir 3 mg/kg IN x 1, 24 h prior to infection"}},
  "note": "Read-outs that look alike come from different tables or passages of the source. Marks after values point to notes of the source that are not given here.",
  "data": [
    {"smiles": "CCOC(=O)C1=C[C@@H](OC(CC)CC)[C@H](NC(C)=O)[C@@H](N)C1", "note": "[Oseltamivir, reference compound]", "values": [
      {"measurement": "Mean Lung Parameters (Day 6): Score (hemorrhage score 0-4)", "setting": "[1]", "result": 1.0},
      {"measurement": "Mean Lung Parameters (Day 6): Virus Titer", "setting": "[1]", "result": 7.9, "unit": "Log10 CCID50/g"},
      {"measurement": "Mean Lung Parameters (Day 6): Weight", "setting": "[1]", "result": 178, "unit": "mg"},
      {"measurement": "Survivors/Total", "setting": "[1]", "result": "10/10***"},
      {"measurement": "survival", "setting": "[2]; same experiment (prophylactic)", "result": "All of the oseltamivir-administered mice survived"},
      {"measurement": "protection from death", "setting": "[2]; only when dosing was initiated 24 h or less post infection", "result": "complete protection"},
      {"measurement": "Percent Body Weight Loss on Study Day 8", "setting": "[2]; [10]", "result": "−28.9", "unit": "%"},
      {"measurement": "Percent Survival", "setting": "[2]; [10]", "result": 100, "unit": "%"},
      {"measurement": "Percent Body Weight Loss on Study Day 8", "setting": "[2]; [11]", "result": "−31.1", "unit": "%"},
      {"measurement": "Percent Survival", "setting": "[2]; [11]", "result": 80, "unit": "%"},
      {"measurement": "Percent Body Weight Loss on Study Day 8", "setting": "[2]; [12]", "result": "−31.3", "unit": "%"},
      {"measurement": "Percent Survival", "setting": "[2]; [12]", "result": 0, "unit": "%"},
      {"measurement": "Percent Body Weight Loss on Study Day 8", "setting": "[2]; [13]", "result": "−19.1", "unit": "%"},
      {"measurement": "Percent Survival", "setting": "[2]; [13]", "result": 100, "unit": "%"},
      {"measurement": "MDD ± SD (mean day of death of mice that died on or before day 21)", "setting": "[3]", "result": 7.0},
      {"measurement": "Mean Lung Parameters (Day 6): Score (hemorrhage score 0-4)", "setting": "[3]", "result": 1.7},
      {"measurement": "Mean Lung Parameters (Day 6): Virus Titer", "setting": "[3]", "result": 7.0, "unit": "Log10 CCID50/g"},
      {"measurement": "Mean Lung Parameters (Day 6): Weight", "setting": "[3]", "result": 218, "unit": "mg"},
      {"measurement": "Survivors/Total", "setting": "[3]", "result": "9/10***"},
      {"measurement": "C.I. (combination index) values at the 50% effect level", "setting": "[4]", "result": 0.58},
      {"measurement": "Log10 Reduction vs. Vehicle", "setting": "[5]; study day 6", "result": "−0.15"},
      {"measurement": "Lung Viral Titer", "setting": "[5]; titers on study day 6", "result": 6.05, "unit": "Log10 TCID50"},
      {"measurement": "MDD ± SD (mean day of death of mice that died on or before day 21)", "setting": "[6]", "result": "9.5 ± 1.2"},
      {"measurement": "Mean Lung Parameters (Day 6): Virus Titer", "setting": "[6]", "result": "5.22 ± 0.38", "unit": "Log10 CCID50/g"},
      {"measurement": "Survivors/Total", "setting": "[6]", "result": "0/10"}
    ]},
    {"smiles": "Cl.Cl.O.O=C(O)[C@H]1C2CCC(CC2)[C@@H]1Nc1nc(-c2c[nH]c3ncc(F)cc23)ncc1F.O=C(O)[C@H]1C2CCC(CC2)[C@@H]1Nc1nc(-c2c[nH]c3ncc(F)cc23)ncc1F", "note": "[Form A HCl salt of Compound (1)]", "values": [
      {"measurement": "Sol.", "setting": "[7]", "result": 0.6, "unit": "mg/mL"},
      {"measurement": "Sol.", "setting": "[7]; [14]", "result": "<0.1", "unit": "mg/mL"}
    ]},
    {"smiles": "CC(=O)N[C@H]1[C@H]([C@H](O)[C@H](O)CO)OC(C(=O)O)=C[C@@H]1N=C(N)N", "note": "[Zanamivir, reference compound]", "values": [
      {"measurement": "Synergy Volume, 95% Confidence", "setting": "[8]", "result": 268},
      {"measurement": "Efficiency Quotient (% survival/(% body weight loss at Day 8)*(Penh at Day 6))", "setting": "[9]; [15]", "result": 0.44},
      {"measurement": "Survival Rate", "setting": "[9]; [15]", "result": 37.5},
      {"measurement": "Efficiency Quotient (% survival/(% body weight loss at Day 8)*(Penh at Day 6))", "setting": "[9]; [16]", "result": 0.73},
      {"measurement": "Survival Rate", "setting": "[9]; [16]", "result": 50},
      {"measurement": "Efficiency Quotient (% survival/(% body weight loss at Day 8)*(Penh at Day 6))", "setting": "[9]; [17]", "result": 0.73},
      {"measurement": "Survival Rate", "setting": "[9]; [17]", "result": 62.5},
      {"measurement": "C.I. (combination index) values at the 50% effect level", "setting": "[4]", "result": 0.64}
    ]},
    {"smiles": "O=C(O)[C@H]1C2CCC(CC2)[C@@H]1Nc1nc(-c2c[nH]c3ncc(F)cc23)ncc1F", "note": "[Form A free base Compound (1)]", "values": [
      {"measurement": "Sol.", "setting": "[7]", "result": "<0.1", "unit": "mg/mL"},
      {"measurement": "Sol.", "setting": "[7]; [14]", "result": 0.3, "unit": "mg/mL"}
    ]},
    {"smiles": "CCC(CC)O[C@@H]1C=C(C(=O)O)C[C@H](N)[C@H]1NC(C)=O", "note": "[oseltamivir carboxylate]", "values": [
      {"measurement": "Synergy Volume, 95% Confidence", "setting": "[8]", "result": 312}
    ]},
    {"smiles": "NC(=O)c1nc(F)c[nH]c1=O", "note": "[favipiravir]", "values": [
      {"measurement": "Synergy Volume, 95% Confidence", "setting": "[8]", "result": 317},
      {"measurement": "C.I. (combination index) values at the 50% effect level", "setting": "[4]", "result": 0.89}
    ]}
  ]
}
